Read-outs that look alike come from different tables or passages of the source. Values belong to the compound of their own block, whether it stands above or below them.
Legend:
[1] = Description: The X-ray powder diffraction studies were performed using a Bruker AXS D2 PHASER in Bragg-Brentano configuration. Using a Cu anode at 30 kV, 10 mA; sample stage standard rotating; monochromatisation by a Kβ-filter (0.5% Ni). Slits: fixed divergence slits 1.0 mm (=0.61°), primary axial Soller slit 2.5°, secondary axial Soller slit 2.5°. Detector: Linear detector LYNXEYE with receiving slit 5° detector opening. […] Measurement conditions: scan range 5 to 45° 2theta, sample rotation 5 rpm, 0.5 s/step, 0.010°/step, 3.0 mm detector slit; and all measuring conditions were logged in the instrument control file. As system suitability, corundum sample A26-826-S(NIST standard) was measured daily.
[2] = Dynamic Vapour Sorption (DVS); assay type: physicochemical
Description: The Dynamic Vapour Sorption (DVS) studies were performed using a Surface Measurement Systems Ltd. DVS-1 No Video. The sample was loaded into a balance pan, typically 20-30 mg, and equilibrated at 0% RH. After the material was dried, the RH was increased with 10% per step for 1 hour per increment, ending at 95% RH. After completion of the sorption cycle, the sample was dried using the same method. The software used for data collection was DVSWin v3.01 No Video. Data analysis was performed using DVS Standard Analysis Suite v6.3.0 (Standard).

[3] = up to 225° C., TGA/DSC
Description: The thermogravimetric analysis and differential scanning calorimetry (TGA/DSC) studies were performed using a Mettler Toledo TGA/DSC1 STARe System with a 34-position auto sampler. The samples were made using Al crucibles (40 μL; pierced). Typically 5-10 mg of sample was loaded into a pre-weighed Al crucible and was kept at 30° C. for 5 minutes, after which it was heated at 10° C./min from 30° C. to 350° C. A nitrogen purge of 40 ml/min was maintained over the sample. The software used for data collection and evaluation was STARe Software v12.10 build 5937. No corrections were applied to the thermogram.

Remark: listed apart in the source
[4] = not given; remark: listed apart in the source
[5] = Hygroscopicity, open flasks in unconditioned ambient air for 24 hours; conditions: open flask; for Hygroscopicity (assessment in words): ambient air; for Absolute weight / Weight increase: room temperature, unconditioned ambient air
Description: 100 mg samples of the two crystalline salts were stored in open flasks for 24 hours side by side at room temperature in unconditioned ambient air and weight measurements occurred at time 0 and after 24 hours (Table 6).

[6] = Shake-flask solubility study; conditions: 20° C.
[7] = Solid state characterization of salts obtained as solids; assay type: physicochemical
[8] = literature; cited from earlier work
[9] = Acetic acid, sample DF1181-5-S11
[10] = Acetonitrile, sample DF1181-5-S7
[11] = Dichloromethane, sample DF1181-5-S2
[12] = Ethyl acetate, sample DF1181-5-S5
[13] = Methyl tert-butyl ether, sample DF1181-5-S3

XRPD after solubility determination [1, 9]: Amorphous
XRPD after solubility determination ([1]; Acetone, sample DF1181-5-S4): Form I-Conform starting material
XRPD after solubility determination [1, 10]: Form I-Conform starting material
XRPD after solubility determination [1, 11]: Form I-Conform starting material
XRPD after solubility determination ([1]; Ethanol, sample DF1181-5-S6): Form I-Conform starting material
XRPD after solubility determination [1, 12]: Form I-Conform starting material
XRPD after solubility determination ([1]; Methanol, sample DF1181-5-S1): Form I-Conform starting material
XRPD after solubility determination [1, 13]: Form I-Conform starting material
XRPD after solubility determination ([1]; Toluene, sample DF1181-5-S10): Form I-Conform starting material
XRPD after solubility determination ([1]; Water, sample DF1181-5-S9): Form I-Conform starting material
XRPD after solubility determination ([1]; n-Heptane, sample DF1181-5-S8): Form I-Conform starting material
Reversibility of water uptake ([2]; DVS sorption/desorption cycles): reversible
Crystalline form upon DVS treatment (XRPD) ([2]; before and after DVS cycles): does not change
Mass loss upon heating [3]: 1.4%
XRPD (polymorphic form) (wells 1-6, solvent Formic acid, co-solvent Water): Form I
XRPD (polymorphic form) (wells 7-12, solvent 2-Butanone, co-solvent n-Heptane): Form I
XRPD (polymorphic form) (wells 13-18, solvent Acetic acid, co-solvent Water): Form I
XRPD (polymorphic form) (wells 19-24, solvent Cyclohexanone, co-solvent n-Heptane): Form I
XRPD (polymorphic form) (wells 25-30, solvent Methanol, co-solvent Water): Form I
XRPD (polymorphic form) (wells 31-36, solvent Ethylacetate, co-solvent n-Heptane): Form I
XRPD (polymorphic form) (wells 37-42, solvent Ethanol, co-solvent Water): Form I
XRPD (polymorphic form) (wells 43-48, solvent Isopropyl acetate, co-solvent n-Heptane): Form I
XRPD (polymorphic form) (wells 49-54, solvent 2-Propanol, co-solvent Water): Form I
XRPD (polymorphic form) (wells 55-60, solvent Cyclopentyl methyl ether, co-solvent n-Heptane): Form I
XRPD (polymorphic form) (wells 61-66, solvent Acetone, co-solvent Water): Form I
XRPD (polymorphic form) (wells 67-72, solvent Toluene, co-solvent n-Heptane): Form I
XRPD (polymorphic form) (wells 79-84, solvent Cyclohexane, co-solvent n-Heptane): Form I
XRPD (polymorphic form) (wells 85-90, solvent Tetrahydrofuran, co-solvent Water): Form I
XRPD (polymorphic form) (wells 91-96, solvent Chlorobenzene, co-solvent n-Heptane): Form I
Appearance ([4]; 25° C./60% RH, 1 month): White
Chiral Purity ([4]; 25° C./60% RH, 1 month): >99.5
Polymorph by XRPD ([4]; 25° C./60% RH, 1 month): Conform
Purity by HPLC ([4]; 25° C./60% RH, 1 month): 99.77
Water content ([4]; 25° C./60% RH, 1 month): 0.2
Appearance ([4]; 25° C./60% RH, 3 months): White
Chiral Purity ([4]; 25° C./60% RH, 3 months): >99.5
Polymorph by XRPD ([4]; 25° C./60% RH, 3 months): Conform
Purity by HPLC ([4]; 25° C./60% RH, 3 months): 99.81
Water content ([4]; 25° C./60% RH, 3 months): 0.2
Appearance ([4]; 25° C./60% RH, 6 months): White
Chiral Purity ([4]; 25° C./60% RH, 6 months): >99.5
Polymorph by XRPD ([4]; 25° C./60% RH, 6 months): Conform
Purity by HPLC ([4]; 25° C./60% RH, 6 months): 99.82
Water content ([4]; 25° C./60% RH, 6 months): 0.2
Appearance ([4]; 25° C./60% RH, 9 months): White
Chiral Purity ([4]; 25° C./60% RH, 9 months): >99.5
Polymorph by XRPD ([4]; 25° C./60% RH, 9 months): Conform
Purity by HPLC ([4]; 25° C./60% RH, 9 months): 99.84
Water content ([4]; 25° C./60% RH, 9 months): 0.2
Appearance ([4]; 25° C./60% RH, 12 months): White
Chiral Purity ([4]; 25° C./60% RH, 12 months): >99.5
Polymorph by XRPD ([4]; 25° C./60% RH, 12 months): Conform
Purity by HPLC ([4]; 25° C./60% RH, 12 months): 99.81
Water content ([4]; 25° C./60% RH, 12 months): 0.3
Appearance ([4]; 25° C./60% RH, Initial): White
Chiral Purity ([4]; 25° C./60% RH, Initial): >99.5
Polymorph by XRPD ([4]; 25° C./60% RH, Initial): Conform
Purity by HPLC ([4]; 25° C./60% RH, Initial): 99.87
Water content ([4]; 25° C./60% RH, Initial): 0.3
Appearance ([4]; 30° C./65%RH, 1 month): White
Chiral Purity ([4]; 30° C./65%RH, 1 month): >99.5
Polymorph by XRPD ([4]; 30° C./65%RH, 1 month): Conform
Purity by HPLC ([4]; 30° C./65%RH, 1 month): 99.76
Water content ([4]; 30° C./65%RH, 1 month): 0.2
Appearance ([4]; 30° C./65%RH, 3 months): White
Chiral Purity ([4]; 30° C./65%RH, 3 months): >99.5
Polymorph by XRPD ([4]; 30° C./65%RH, 3 months): Conform
Purity by HPLC ([4]; 30° C./65%RH, 3 months): 99.81
Water content ([4]; 30° C./65%RH, 3 months): 0.3
Appearance ([4]; 30° C./65%RH, 6 months): White
Chiral Purity ([4]; 30° C./65%RH, 6 months): >99.5
Polymorph by XRPD ([4]; 30° C./65%RH, 6 months): Conform
Purity by HPLC ([4]; 30° C./65%RH, 6 months): 99.84
Water content ([4]; 30° C./65%RH, 6 months): 0.2
Appearance ([4]; 30° C./65%RH, 9 months): White
Chiral Purity ([4]; 30° C./65%RH, 9 months): >99.5
Polymorph by XRPD ([4]; 30° C./65%RH, 9 months): Conform
Purity by HPLC ([4]; 30° C./65%RH, 9 months): 99.86
Water content ([4]; 30° C./65%RH, 9 months): 0.2
Appearance ([4]; 30° C./65%RH, 12 months): White
Chiral Purity ([4]; 30° C./65%RH, 12 months): >99.5
Polymorph by XRPD ([4]; 30° C./65%RH, 12 months): Conform
Purity by HPLC ([4]; 30° C./65%RH, 12 months): 99.85
Water content ([4]; 30° C./65%RH, 12 months): 0.3
Appearance ([4]; 30° C./65%RH, Initial): White
Chiral Purity ([4]; 30° C./65%RH, Initial): >99.5
Polymorph by XRPD ([4]; 30° C./65%RH, Initial): Conform
Purity by HPLC ([4]; 30° C./65%RH, Initial): 99.87
Water content ([4]; 30° C./65%RH, Initial): 0.3
Appearance ([4]; 40° C./75% RH, 1 month): White
Chiral Purity ([4]; 40° C./75% RH, 1 month): >99.5
Polymorph by XRPD ([4]; 40° C./75% RH, 1 month): Conform
Purity by HPLC ([4]; 40° C./75% RH, 1 month): 99.80
Water content ([4]; 40° C./75% RH, 1 month): 0.3
Appearance ([4]; 40° C./75% RH, 3 months): White
Chiral Purity ([4]; 40° C./75% RH, 3 months): >99.5
Polymorph by XRPD ([4]; 40° C./75% RH, 3 months): Conform
Purity by HPLC ([4]; 40° C./75% RH, 3 months): 99.79
Water content ([4]; 40° C./75% RH, 3 months): 0.5
Appearance ([4]; 40° C./75% RH, 6 months): White
Chiral Purity ([4]; 40° C./75% RH, 6 months): >99.5
Polymorph by XRPD ([4]; 40° C./75% RH, 6 months): Conform
Purity by HPLC ([4]; 40° C./75% RH, 6 months): 99.88
Water content ([4]; 40° C./75% RH, 6 months): 0.3
Appearance ([4]; 40° C./75% RH, Initial): White
Chiral Purity ([4]; 40° C./75% RH, Initial): >99.5
Polymorph by XRPD ([4]; 40° C./75% RH, Initial): Conform
Purity by HPLC ([4]; 40° C./75% RH, Initial): 99.87
Water content ([4]; 40° C./75% RH, Initial): 0.3
Long-term stability (purity, water content, chiral purity), in words ([4]; all assessed stability conditions and time periods): very stable
Hygroscopicity (assessment in words) [5]: non-hygroscopic
Absolute weight [5]: 103.9 mg
Weight increase ([5]; listed as Phosphate Salt): 0.57%
Solubility [6, 9]: 118 to 1180 mg/mL
Solubility ([6]; Acetone, sample DF1181-5-S4): <0.09 mg/mL
Solubility [6, 10]: <0.11 mg/mL
Solubility [6, 11]: <0.10 mg/mL
Solubility ([6]; Ethanol, sample DF1181-5-S6): 0.1 to 1.0 mg/mL
Solubility [6, 12]: <0.09 mg/mL
Solubility ([6]; Methanol, sample DF1181-5-S1): 112 to 1120 mg/mL
Solubility [6, 13]: <0.11 mg/mL
Solubility ([6]; Toluene, sample DF1181-5-S10): <0.10 mg/mL
Solubility ([6]; Water, sample DF1181-5-S9): >1000 mg/mL
Solubility ([6]; n-Heptane, sample DF1181-5-S8): <0.11 mg/mL
Crystallinity [7]: good
Hygroscopicity (DVS) [7]: low
Polymorph tendency (XRPD) [7]: Not observed
Solid phase transition (XRPD) [7]: Not observed
Solvation [7]: anhydrous
Water solubility [7]: good
Structure (SMILES): N#Cc1ccc([C@H]2CCCc3cncn32)cc1.O=P(O)(O)O

Hygroscopicity (assessment in words) [5]: significant hygroscopicity
Absolute weight [5]: 113.2 mg
Weight increase [5]: 13.1%
Weight increase ([5]; listed as Chloride Salt): 13.1%
Structure (SMILES): Cl.N#Cc1ccc([C@H]2CCCc3cncn32)cc1
Hygroscopicity (in words) [8]: highly hygroscopic

— US12202827B2, “Aldosterone synthase inhibitor” (DAMIAN PHARMA AG, priority 2016, dated 2025)
